From patent publication US20040171566A1, “Antisense modulation of p38 mitogen activated protein kinase expression” (priority 1999, published 2004)

Experiments:
p38α [1] = assay: p38α knock-down in mouse T cell line EL4, Western blotting; type: cell-based
[2] = mouse, in vivo
Protocol: For the aerosol studies, the protocol described above was slightly modified. Male Balb/c mice were injected IP with OVA (20 μg) in aluminum hydroxide on days 0 and 14. Aerosol dosing was performed with nebulized sterile saline, antisense oligonucleotide or mismatched control oligonucleotide using 25, 125 and 250 μg/ml solutions (5 mg/kg) for 30 min. on days 14-20 in a closed chamber. Aerosol lung challenge was carried out with nebulized saline or 1% OVA for 20 min. on days 18, 19 and 20. BAL fluid was collected at 24 hr post-last lung challenge (cell differentials) or at 2-12 h post-challenge (cytokine analysis). AHR was measured 24 hours after OVA challenge. Mice were exposed to aerosolized methacholine 24 hr post-last lung challenge from 2-80 mg/ml for 3 min. until a 200% increase in Penh was achieved.

p38α mRNA = assay: Reduction of p38α mRNA in fibroblasts; type: cell-based; settings: read-out: IC50 for reducing p38α mRNA
rat p38α mRNA = assay: Rat p38α mRNA levels in NR-8383 cells, quantitative real-time PCR; type: cell-based; settings: 300 nM oligonucleotide with FuGENE 6, 24 hours, mRNA by quantitative real-time PCR, average of two experiments
[3] = test system: ovalbumin (OVA)-induced airway hyperresponsiveness; assay: Mouse model of allergic inflammation (OVA), intratracheal oligonucleotide administration; type: in vivo; settings: OVA mice
Protocol: In the mouse model of allergic inflammation, mice were sensitized and challenged with aerosolized chicken ovalbumin (OVA). Airway responsiveness was assessed by inducing airflow obstruction with a methacholine aerosol using a noninvasive method. This methodology utilized unrestrained conscious mice that are placed into the main chamber of a plthysmograph (Buxco Electronics, Inc., Troy, N.Y.). Pressure differences between this chamber and a reference chamber were used to extrapolate minute volume, breathing frequency and enhanced pause (Penh). […] This parameter closely correlates with lung resistance as measured by traditional invasive techniques using ventilated animals (Hamelmann et al., 1997). […]
For intratracheal administration of ISIS 101757, female Balb/c mice (Charles Rivers Laboratory, Taconic Farms, N.Y.) were maintained in micro-isolator cages housed in a specific pathogen-free (SPF) facility. […] Animals were analyzed about 24 hours following the last nebulization using the Buxco electronics Biosystem. Lung function (Penh), lung histology (cell infiltration and mucus production), target mRNA reduction in the lung, inflammation (BAL cell type & number, cytokine levels), spleen weight and serum AST/ALT were determined. […]

mouse p38α mRNA = assay: Mouse p38α mRNA levels in bEND.3 cells, quantitative real-time PCR; type: cell-based; set-up: % Inhib. mouse p38α: concentration or dose not given beside the values
How it was run: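 Mouse bEND.3 cells, antisense oligonucleotide-treated; p38α mRNA measured by one-step real-time RT-PCR (RT 30 min at 48 °C, then 40 cycles) with a FAM/TAMRA probe. Levels normalized to GAPDH or RiboGreen total RNA, and percent inhibition derived from standard curves of untreated-control mRNA.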

p38α [4] = assay: p38α knock-down in mouse macrophage cell line RAW264.7, Western blotting; type: cell-based

## ISIS 101757: antisense oligonucleotide targeted to mouse p38α, SEQ ID NO 177; 2′-MOE gapmer, all phosphorothioate linkages (antisense AGGTGCTCAGGACTCCATTT; all phosphorothioate, sugars by position and methylation of C not given here; 2'-MOE gapmer)
p38α [1]
  p38α knock-down effect: confirmed
[2]
  Oligonucleotide levels in lung tissue sufficient to achieve the pharmacological effects: up to 1 μg/g
p38α mRNA
  IC50: ~250 nM
Rat p38α mRNA
  % Inhib. rat p38α: 53%
[3]
  Penh response to methacholine (50 mg/ml) challenge: dose-dependent inhibition
Mouse p38α mRNA; bEND.3 cells, mRNA by quantitative real-time PCR, average of two experiments
  % Inhib. mouse p38α: 88%
Mouse p38α mRNA; endothelial cells, read-out: IC50 for reducing p38α mRNA
  IC50: < 50 nM
p38α [4]
  p38α knock-down effect: confirmed
